Data as given in ChEMBL document CHEMBL6092183, “Rapid Affinity and Microsomal Stability Ranking of Crude Mixture Libraries of Histone Deacetylase Inhibitors” (ACS Med Chem Lett, 2024).
“And” between values parts separate entries of the source, which are not always exact repeats. Identical values can stand only once.

Legend:
[1] = in vitro; settings: rat, microsomes
[2] = molecular target: Histone deacetylase 2 (Homo sapiens, UniProt Q92769); assay: Inhibition of HDAC2 (unknown origin) incubated for 30 mins by ALIS assay
Chain of Histone deacetylase 2 (Q92769 whole entry): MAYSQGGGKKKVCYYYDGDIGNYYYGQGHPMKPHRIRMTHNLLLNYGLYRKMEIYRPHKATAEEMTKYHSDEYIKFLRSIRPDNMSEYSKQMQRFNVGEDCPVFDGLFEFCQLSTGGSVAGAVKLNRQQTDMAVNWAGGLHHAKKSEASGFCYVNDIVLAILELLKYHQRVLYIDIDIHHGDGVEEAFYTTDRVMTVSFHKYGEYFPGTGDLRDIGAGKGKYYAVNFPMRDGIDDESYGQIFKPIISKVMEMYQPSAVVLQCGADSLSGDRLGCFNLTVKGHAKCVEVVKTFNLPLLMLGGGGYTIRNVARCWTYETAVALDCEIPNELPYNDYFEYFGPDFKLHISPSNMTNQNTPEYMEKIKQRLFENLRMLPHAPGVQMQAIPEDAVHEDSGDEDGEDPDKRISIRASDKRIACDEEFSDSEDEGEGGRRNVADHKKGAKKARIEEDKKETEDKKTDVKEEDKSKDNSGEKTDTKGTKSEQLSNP

[3] = human, microsomes
Description: Metabolic stability in human liver microsomes

| microsomal CLint at 0.75 h, 0.3 µM [1] [µL/min/mg] | IC50 [2] | Stability [3] | Compound |
| --- | --- | --- | --- |
| 57.5 | 37 nM | – | O=C(NCCCC[C@H](NC(=O)C1C2CNCC21)c1ncc(-c2ccc3ccccc3c2)[nH]1)c1c(O)cccc1F (some centres not stated) |
| 805 | – | – | O=C(NCCCC[C@H](NC(=O)C1CCCCC12CC2)c1ncc(-c2ccc3ccccc3c2)[nH]1)c1c(O)cccc1F (some centres not stated) |
| 70.1 | – | – | O=C(NCCCC[C@H](NC(=O)C1CC12CCNCC2)c1ncc(-c2ccc3ccccc3c2)[nH]1)c1c(O)cccc1F (some centres not stated) |
| 310 | 64.5 nM | – | CC(=O)N1CC2(CC2C(=O)N[C@@H](CCCCNC(=O)c2c(O)cccc2F)c2ncc(-c3ccc4ccccc4c3)[nH]2)C1 (some centres not stated) |
| 754 | – | – | O=C(NCCCC[C@H](NC(=O)C1C2CCNC21)c1ncc(-c2ccc3ccccc3c2)[nH]1)c1c(O)cccc1F (some centres not stated) |
| 9.9 | 428 nM | – | CCCC[C@H](NC(=O)[C@H](CN)c1c[nH]c2ccc(OC)cc12)c1nc(-c2ccn(C)c(=O)c2)c[nH]1 |
| 164 | – | Stable | CCCC[C@H](NC(=O)[C@H](CN)c1c[nH]c2ccc(OC)cc12)c1nc(-c2ccc(OC)cc2)c[nH]1 |
| 75.7 | 295 nM | Stable | CCC(=O)CCCCC[C@H](NC(=O)C1C2COCC21)c1ncc(-c2ccccc2)[nH]1 (some centres not stated) |
| 51 | – | – | CCCC[C@H](NC(=O)[C@H](CN)c1c[nH]c2ccc(OC)cc12)c1nc(-c2cc(C)cc(C)c2)c[nH]1 |
| 811 | 441 nM and 144 nM | – | O=C(NCCCC[C@H](NC(=O)C1CC12CCCC2)c1ncc(-c2ccc3ccccc3c2)[nH]1)c1c(O)cccc1F (some centres not stated) |
| 984 | 432 nM | – | O=C(NCCCC[C@H](NC(=O)C1CC12CCCCC2)c1ncc(-c2ccc3ccccc3c2)[nH]1)c1c(O)cccc1F (some centres not stated) |
| 3510 | – | – | CCC(=O)CCCCC[C@H](NC(=O)C1CC12CCCC2)c1ncc(-c2ccccc2)[nH]1 (some centres not stated) |
| 1240 | 19.1 nM | – | O=C(NCCCC[C@H](NC(=O)C1CN2CCC1CC2)c1ncc(-c2ccc3ccccc3c2)[nH]1)c1c(O)cccc1F (some centres not stated) |
| 1150 | 45.4 nM and 89.8 nM | – | O=C(NCCCC[C@H](NC(=O)C1C2COCC21)c1ncc(-c2ccc3ccccc3c2)[nH]1)c1c(O)cccc1F (some centres not stated) |
| 192 | – | – | CCCC[C@H](NC(=O)[C@H](CN)c1c[nH]c2ccc(OC)cc12)c1nc(-c2ccc3c(C)noc3c2)c[nH]1 |
| 66.8 | 423 nM | – | CCC(=O)CCCCC[C@H](NC(=O)C1CC12CN(C(C)=O)C2)c1ncc(-c2ccccc2)[nH]1 (some centres not stated) |
| 68.9 | – | Stable | CCCC[C@H](NC(=O)[C@H](CN)c1c[nH]c2ccc(OC)cc12)c1nc(-c2ccc(C#N)cc2)c[nH]1 |
| 11.8 | 112 nM | – | CCC(=O)CCCCC[C@H](NC(=O)C1C2CNCC21)c1ncc(-c2ccccc2)[nH]1 (some centres not stated) |
| 83.4 | – | – | CCCC[C@H](NC(=O)[C@H](CN)c1c[nH]c2ccc(OC)cc12)c1nc(-c2ccc(-c3ccn(C)n3)cc2)c[nH]1 |
| 195 | – | – | CCCC[C@H](NC(=O)[C@H](CN)c1c[nH]c2ccc(OC)cc12)c1nc(-c2cccc(C)c2)c[nH]1 |
| 693 | 48 nM and 12 nM | – | CS(=O)(=O)N1CC2(CC2C(=O)N[C@@H](CCCCNC(=O)c2c(O)cccc2F)c2ncc(-c3ccc4ccccc4c3)[nH]2)C1 (some centres not stated) |
| 110 | – | – | CCCC[C@H](NC(=O)[C@H](CN)c1c[nH]c2ccc(OC)cc12)c1nc(-c2ccc(C3CC(C)(C)C3)cc2)c[nH]1 |

| Compound | microsomal CLint at 0.75 h, 0.3 µM [1] [µL/min/mg] | IC50 [2] | Stability [3] |
| --- | --- | --- | --- |
| CCC(=O)CCCCC[C@H](NC(=O)C1CC2CCN1CC2)c1ncc(-c2ccccc2)[nH]1 (some centres not stated) | 144 | 96.8 nM | – |
| CCC(=O)CCCCC[C@H](NC(=O)CC1CN2CCC1CC2)c1ncc(-c2ccccc2)[nH]1 (some centres not stated) | 91.8 | 211 nM | – |
| CCC(=O)CCCCC[C@H](NC(=O)C1CN2CCC1CC2)c1ncc(-c2ccccc2)[nH]1 (some centres not stated) | 134 | 146 nM | – |
